Measured values: patent US20250075155A1, “Use of Vanillyl Ethers to Modify Flavor of Distilled Spirits” (Firmenich Incorporated, priority 2021, published 2025)

Test: Sensory testing of unaged grain neutral spirit with vs without VEE (qualitative, taste testers)
Description: (§1) Sensory testing was performed comparing two samples of unaged grain neutral spirit (20% alcohol by volume), where one sample contained no vanillyl ether compounds and the other sample contained 4-(ethoxy methyl)-2-methoxyphenol (vanillyl ethyl ether or VEE) at a concentration of 5 ppm. The taste testers were asked to describe the differences between the two samples on a qualitative basis.
as §1, with “4-(ethoxymethyl)-2-methoxyphenol” for “4-(ethoxy methyl)-2-methoxyphenol”, “25” for “5”

[1] = VEE 5 ppm in unaged grain neutral spirit (20% ABV), relative to control sample
[2] = VEE 25 ppm in unaged grain neutral spirit (20% ABV), relative to control sample

## CCOCc1ccc(O)c(OC)c1 [VEE, 4-(ethoxymethyl)-2-methoxyphenol]
[1]
  Bitterness: All taste testers identified the test sample as having a less bitter
  Overall Taste: All taste testers identified the test sample as having a better overall
  Smoothness/Balance/Roundness: All taste testers identified the test sample as having greater
  Smoothness/Balance/Roundness: taste characteristic of an aged spirit: test sample as having a taste more characteristic of an aged spirit.
  Sweetness: sweeter taste.
VEE 5 ppm in unaged grain neutral spirit (20% alcohol by volume), relative to control sample without vanillyl ether
  Smell: sample (containing VEE) as having a slight rum-like smell relative
[2]
  Bitterness: All taste testers identified the test sample as having a less bitter
  Overall Taste: All taste testers identified the test sample as having a better
  Smoothness/Balance/Roundness: All taste testers identified the test sample as having greater
  Sweetness: sweeter taste.
  Tingling/Heat: increased tingling/hot perception very similar to ethanol profile
  Tingling/Heat: alcohol perception: while significantly increasing the alcohol perception; taste like
